Experimental data published in patent publication US9834548B2, “Pyridazine compounds as JAK inhibitors” (Portola Pharmaceuticals, Inc., priority 2014, dated 2017).
Where two headings read alike, the source gives them in different places.

Experiments:
Format in all cases: biochemical
JAK2 = JAK2 (Homo sapiens (Human), UniProt O60674); test: Purified kinase assay (Z'-LYTE), JAK2
Procedure: (§1) JAK and TYK2 tyrosine phosphorylation activity is measured using the Z′-LYTE™ Technology developed by Invitrogen Corporation (Carlsbad, Calif.). For JAK1, JAK2 and JAK3 the Z′-LYTE™ Kinase Assay Kit-Tyr6 Peptide (part number PV4122) was used. For TYK2 the Z′-LYTE™ Kinase Assay Kit-Tyr6 Peptide (part number PV3192) was used. The Z′-LYTE™ biochemical assay employs a fluorescence resonance energy transfer (FRET) coupled-enzyme format and is based on the differential sensitivity of phosphorylated and non-phosphorylated peptides to proteolytic cleavage. The assay uses a synthetic peptide substrate that is labeled with a donor fluorophore (coumarin) and an acceptor fluorophore (fluorescein) that make up a FRET pair. In the primary reaction (the Kinase Reaction), the kinase transfers the γ-phosphate of ATP to a single tyrosine residue on the substrate, while the presence of a kinase inhibitor in the primary reaction suppresses phosphorylation. In the secondary reaction (the Development Reaction), a site-specific protease (the Development Reagent) is added. The development buffer quenches the Kinase Reaction, while the protease recognizes and cleaves non-phosphorylated Z′-LYTE™ peptide substrate. Cleavage disrupts FRET between the donor and acceptor fluorophores on the non-phosphorylated substrate, while uncleaved, phosphorylated substrate maintains FRET.
(§2) To test the ability of candidate molecules to inhibit JAK tyrosine phosphorylation activity, molecules are reconstituted in 100% DMSO and serially diluted 1:10 in polypropylene v-bottom microtiter plates. The candidate molecules are then diluted 1:25 into kinase buffer and 2.5 μl transferred into duplicate wells of a 384 well low volume black microtiter assay plate (Corning, USA). The final DMSO concentration in the assay is 1%. The kinase reaction contains 2.5 μl of a candidate molecule, 5 μl of catalytic domain recombinant Kinase enzyme+Tyr peptide substrate (Invitrogen, CA) and ATP (Invitrogen, CA). The kinase reaction is allowed to proceed for 1 hour at room temperature. The protease reaction is initiated by the addition of Development Reagent (Invitrogen, CA). After 1 hour incubation at room temperature the fluorescence is measured using a FlexStation plate reader (Molecular Devices, Sunnyvale, Calif.). The reader settings used are as follows: Fluorescence mode, endpoint, top read, excitation 400 nm, emission 445 nm and 520 nm, Auto Cutoff 435 nm and 515 nm, PMT sensitivity high, 6 reads per well Inhibition of JAK activity is calculated as the percent phosphorylation of substrate in the presence of inhibitor compared to the percent phosphorylation of substrate in the absence of inhibitor. IC50's were derived using Xlfit 4.3 (IDBS, UK), 4 parameter logistic model 205: Y=(A+((B−A)/(1+((C/x)^D)))).

TYK2 = TYK2 (Homo sapiens (Human), UniProt P29597); test: Purified kinase assay (Z'-LYTE), TYK2
TYK2, sequence (P29597 897-1176): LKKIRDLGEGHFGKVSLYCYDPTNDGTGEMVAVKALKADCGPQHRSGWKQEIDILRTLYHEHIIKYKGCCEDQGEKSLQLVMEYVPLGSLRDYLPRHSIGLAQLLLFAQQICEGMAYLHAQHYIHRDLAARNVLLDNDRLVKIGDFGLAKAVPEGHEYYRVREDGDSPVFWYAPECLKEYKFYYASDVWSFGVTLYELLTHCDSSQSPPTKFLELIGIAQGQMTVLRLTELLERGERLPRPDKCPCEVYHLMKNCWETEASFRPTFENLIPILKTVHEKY
Procedure: as §1, §2

JAK3 = JAK3 (Homo sapiens (Human), UniProt P52333); test: Purified kinase assay (Z'-LYTE), JAK3
JAK3, sequence (P52333 822-1111): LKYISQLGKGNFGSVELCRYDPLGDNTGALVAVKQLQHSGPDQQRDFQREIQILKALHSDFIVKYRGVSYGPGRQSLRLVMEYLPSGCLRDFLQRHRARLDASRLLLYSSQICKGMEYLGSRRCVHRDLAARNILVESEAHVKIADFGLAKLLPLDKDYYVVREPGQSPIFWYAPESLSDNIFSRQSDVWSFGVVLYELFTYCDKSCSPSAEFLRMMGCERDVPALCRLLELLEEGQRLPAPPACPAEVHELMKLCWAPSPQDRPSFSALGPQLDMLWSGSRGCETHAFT
Procedure: as §1, §2

JAK1 = JAK1 (Homo sapiens (Human), UniProt P23458); test: Purified kinase assay (Z'-LYTE), JAK1
JAK1, sequence (P23458 875-1153): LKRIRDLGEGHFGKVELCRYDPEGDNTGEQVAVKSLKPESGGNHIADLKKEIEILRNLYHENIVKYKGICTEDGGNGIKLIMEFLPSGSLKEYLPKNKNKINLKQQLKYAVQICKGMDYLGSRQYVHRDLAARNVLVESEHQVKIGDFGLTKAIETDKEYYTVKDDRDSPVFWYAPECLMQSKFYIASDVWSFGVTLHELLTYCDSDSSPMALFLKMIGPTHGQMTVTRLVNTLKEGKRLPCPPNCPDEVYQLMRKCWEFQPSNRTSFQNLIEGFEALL
Procedure: as §1, §2

JAK2, sequence (O60674 849-1124): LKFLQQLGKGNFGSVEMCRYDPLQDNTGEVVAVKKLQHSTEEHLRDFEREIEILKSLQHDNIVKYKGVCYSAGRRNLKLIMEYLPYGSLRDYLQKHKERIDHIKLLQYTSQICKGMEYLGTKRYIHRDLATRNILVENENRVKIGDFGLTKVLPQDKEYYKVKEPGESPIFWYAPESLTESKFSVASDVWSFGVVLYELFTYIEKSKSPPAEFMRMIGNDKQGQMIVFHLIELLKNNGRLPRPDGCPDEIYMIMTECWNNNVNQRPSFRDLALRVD

Row | IC50 (JAK2; Table 1, read-out: JAK2 IC50) | IC50 (TYK2; Table 1, read-out: Tyk2 IC50) | IC50 (JAK3; Table 1, read-out: JAK3 IC50) | IC50 (JAK1; Table 1, read-out: JAK1 IC50) | IC50 (JAK2; Table 2, read-out: JAK2) | IC50 (TYK2; Table 2, read-out: TYK2) | IC50 (JAK3; Table 2, read-out: JAK3) | IC50 (JAK1; Table 2, read-out: JAK1) | Structure (SMILES)
1 | 100 to 1000 nM | 100 to 1000 nM | 1 to 10 nM | > 1000 nM | – | – | – | – | CC(=O)N1CCN(c2ccc(Nc3cc(NCc4cccc(F)c4)c(C(N)=O)nn3)cc2)CC1 [Compound 19]
2 | 10 to 100 nM | 100 to 1000 nM | 1 to 10 nM | 100 to 1000 nM | – | – | – | – | Cc1cc(Nc2cc(NCc3cccc(F)c3F)c(C(N)=O)nn2)ccc1C(=O)N1CCCC1 [Compound 42]
3 | 100 to 1000 nM | 100 to 1000 nM | 1 to 10 nM | 100 to 1000 nM | 100 to 1000 nM | 100 to 1000 nM | 1 to 10 nM | > 1000 nM | CC(=O)N1CCN(c2ccc(Nc3cc(NCc4ccccc4F)c(C(N)=O)nn3)cc2)CC1 [Compound 18, 6-((4-(4-acetylpiperazin-1-yl)phenyl)amino)-4-((2-fluorobenzyl)amino)pyridazine-3-carboxamide]
4 | 100 to 1000 nM | > 1000 nM | 10 to 100 nM | > 1000 nM | – | – | – | – | COc1cccc(CNc2cc(Nc3ccc(N4CCN(C(C)=O)CC4)cc3)nnc2C(N)=O)c1 [Compound 58]
5 | 100 to 1000 nM | > 1000 nM | 10 to 100 nM | > 1000 nM | – | – | – | – | CN(C)C(=O)c1ccc(Nc2cc(NCc3cccc(F)c3)c(C(N)=O)nn2)cc1 [Compound 59]
6 | 10 to 100 nM | 100 to 1000 nM | 1 to 10 nM | > 1000 nM | – | – | – | – | Cc1cc(Nc2cc(NCc3cccc(F)c3)c(C(N)=O)nn2)ccc1C(=O)N1CCCC1 [Compound 61]
7 | 100 to 1000 nM | 100 to 1000 nM | 10 to 100 nM | > 1000 nM | – | – | – | – | CC(=O)Nc1cccc(Nc2cc(NCc3cccc(F)c3)c(C(N)=O)nn2)c1 [Compound 65]
8 | 100 to 1000 nM | 100 to 1000 nM | 10 to 100 nM | > 1000 nM | – | – | – | – | CC(=O)N1CCN(c2ccc(Nc3cc(NCc4ccccc4)c(C(N)=O)nn3)cc2)CC1 [Compound 5, 6-((4-(4-acetylpiperazin-1-yl)phenyl)amino)-4-(benzylamino)-pyridazine-3-carboxamide]
9 | 100 to 1000 nM | 100 to 1000 nM | 10 to 100 nM | > 1000 nM | – | – | – | – | CCC(=O)N1CCN(c2ccc(Nc3cc(NCc4ccccc4F)c(C(N)=O)nn3)cc2)CC1 [Compound 29]
10 | 100 to 1000 nM | 100 to 1000 nM | 1 to 10 nM | 100 to 1000 nM | – | – | – | – | CC(=O)N1CCN(c2ccc(Nc3cc(NCc4ccccc4C)c(C(N)=O)nn3)cc2)CC1 [Compound 23]
11 | 100 to 1000 nM | 100 to 1000 nM | 1 to 10 nM | 100 to 1000 nM | – | – | – | – | CS(=O)(=O)Cc1ccc(Nc2cc(NCc3cccc(F)c3F)c(C(N)=O)nn2)cc1 [Compound 89]
12 | 100 to 1000 nM | > 1000 nM | 10 to 100 nM | > 1000 nM | – | – | – | – | NC(=O)c1nnc(Nc2cccc(OCCN3CCCC3)c2)cc1NCc1cccc(F)c1 [Compound 56]
13 | 100 to 1000 nM | 100 to 1000 nM | 10 to 100 nM | > 1000 nM | – | – | – | – | CC(=O)N1CCN(c2ccc(Nc3cc(NCc4cccs4)c(C(N)=O)nn3)cc2)CC1 [Compound 21]
14 | 100 to 1000 nM | > 1000 nM | 10 to 100 nM | > 1000 nM | – | – | – | – | Cn1cc(Nc2cc(NCc3cccc(F)c3)c(C(N)=O)nn2)cn1 [Compound 66]
15 | 100 to 1000 nM | – | 100 to 1000 nM | > 1000 nM | – | – | – | – | NC(=O)c1nnc(Nc2ccc(N3CCOCC3)cc2)cc1NC1CCC1 [Compound 6, 4-(cyclobutylamino)-6-((4-morpholinophenyl)amino)pyridazine-3-carboxamide]
16 | > 1000 nM | – | 100 to 1000 nM | > 1000 nM | – | – | – | – | CC(=O)N1CCN(c2ccc(Nc3cc(NCc4cccc(-c5ccccn5)c4)c(C(N)=O)nn3)cc2)CC1 [Compound 71]

Row | IC50 (JAK2; Table 1, read-out: JAK2 IC50) | IC50 (TYK2; Table 1, read-out: Tyk2 IC50) | IC50 (JAK3; Table 1, read-out: JAK3 IC50) | IC50 (JAK1; Table 1, read-out: JAK1 IC50) | IC50 (JAK2; Table 2, read-out: JAK2) | IC50 (TYK2; Table 2, read-out: TYK2) | IC50 (JAK3; Table 2, read-out: JAK3) | IC50 (JAK1; Table 2, read-out: JAK1) | Structure (SMILES)
17 | 100 to 1000 nM | – | 10 to 100 nM | > 1000 nM | – | – | – | – | CC(=O)N1CCN(c2ccc(Nc3cc(NCc4cc(-n5ccnc5)ccc4F)c(C(N)=O)nn3)cc2)CC1 [Compound 103]
18 | 10 to 100 nM | – | 1 to 10 nM | 100 to 1000 nM | – | – | – | – | CC(=O)N1CCC(Cn2cc(Nc3cc(NCc4cccc5ccsc45)c(C(N)=O)nn3)cn2)CC1 [Compound 125]
19 | > 1000 nM | > 1000 nM | 10 to 100 nM | > 1000 nM | – | – | – | – | CC(=O)N1CCN(c2ccc(Nc3cc(NC4(c5ccccc5)CC4)c(C(N)=O)nn3)cc2)CC1 [Compound 57]
20 | 10 to 100 nM | – | 1 to 10 nM | 10 to 100 nM | – | – | – | – | CCC(=O)N1CCN(c2ccc(Nc3cc(NCc4cccc5[nH]ccc45)c(C(N)=O)nn3)cc2)CC1 [Compound 110]
21 | 100 to 1000 nM | – | 1 to 10 nM | > 1000 nM | – | – | – | – | NC(=O)c1nnc(Nc2ccc(C(=O)N3CCCC3)cc2)cc1NCc1cccc(F)c1F [Compound 83]
22 | 10 to 100 nM | – | 10 to 100 nM | 100 to 1000 nM | – | – | – | – | CC(=O)N1CCN(c2ccc(Nc3cc(N[C@H](C)C(C)C)c(C(N)=O)nn3)cc2)CC1 [Compound 75]
23 | 100 to 1000 nM | > 1000 nM | 10 to 100 nM | > 1000 nM | – | – | – | – | Cc1cc(Nc2cc(NCc3cccc(F)c3)c(C(N)=O)nn2)ccc1C(=O)N(C)C [Compound 60]
24 | 100 to 1000 nM | – | 1 to 10 nM | > 1000 nM | – | – | – | – | CCC(=O)N1CCN(c2ccc(Nc3cc(NCc4cc(F)cc(F)c4)c(C(N)=O)nn3)cc2)CC1 [Compound 31]
25 | > 1000 nM | – | 10 to 100 nM | > 1000 nM | – | – | – | – | CN(C(=O)C1CC1)c1ccc(Nc2cc(NCc3cccc(F)c3F)c(C(N)=O)nn2)cc1 [Compound 44]
26 | > 1000 nM | – | 100 to 1000 nM | > 1000 nM | – | – | – | – | CC(=O)N1CCN(c2ccc(Nc3cc(NCc4cccc(F)c4)c(C(N)=O)nn3)cn2)CC1 [Compound 49]
27 | 100 to 1000 nM | – | 100 to 1000 nM | > 1000 nM | – | – | – | – | CC(=O)Nc1cccc(Nc2cc(NC3CCC3)c(C(N)=O)nn2)c1 [Compound 7, 6-((3-acetamidophenyl)amino)-4-(cyclobutylamino)pyridazine-3-carboxamide]
28 | 10 to 100 nM | 100 to 1000 nM | 1 to 10 nM | 100 to 1000 nM | – | – | – | – | NC(=O)c1nnc(Nc2ccc(N3CCNCC3)cc2)cc1NCc1cccc2ccsc12 [Compound 99]
29 | 100 to 1000 nM | – | 10 to 100 nM | > 1000 nM | – | – | – | – | CCC(=O)N1CCC(Cn2cc(Nc3cc(NCc4cccc(F)c4)c(C(N)=O)nn3)cn2)CC1 [Compound 130]
30 | 100 to 1000 nM | – | 10 to 100 nM | > 1000 nM | – | – | – | – | CC(=O)N1CCN(C(=O)c2ccc(Nc3cc(NCc4cccc(F)c4)c(C(N)=O)nn3)cc2)CC1 [Compound 81]
31 | 100 to 1000 nM | – | 10 to 100 nM | 100 to 1000 nM | – | – | – | – | C[S+]([O-])Cc1ccc(Nc2cc(NCc3cccc(F)c3)c(C(N)=O)nn2)cc1 (stereo not drawn) [Compound 105]
32 | 100 to 1000 nM | – | 10 to 100 nM | 100 to 1000 nM | – | – | – | – | CN(C)C(=O)Cn1cc(Nc2cc(NCc3cccc4ccsc34)c(C(N)=O)nn2)cn1 [Compound 131]
